Patent US8673894B2 (Hoffmann-La Roche Inc., priority 2010, dated 2014)
pIC50: −log10 of the molar value. Where a name gives a salt, the structure may show the parent alone.

Tests used:
[1] = target: T1, endogenous cellular BACE2 (Rattus norvegicus, UniProt Q6IE75); assay: Assay for BACE inhibition by measuring cellular TMEM27 cleavage; format: cell-based; settings: INS-TMEM27 (INS1e-derived) cells, shed human TMEM27 in supernatant by ELISA
T1 construct: endogenous cellular BACE2 in the Ins1e rat cell line; endogenous in cells; host or cells: INS-TMEM27 (INS1e-derived rat insulinoma cell line with doxycycline-inducible full-length human TMEM27)
T1 sequence (Q6IE75 63-514): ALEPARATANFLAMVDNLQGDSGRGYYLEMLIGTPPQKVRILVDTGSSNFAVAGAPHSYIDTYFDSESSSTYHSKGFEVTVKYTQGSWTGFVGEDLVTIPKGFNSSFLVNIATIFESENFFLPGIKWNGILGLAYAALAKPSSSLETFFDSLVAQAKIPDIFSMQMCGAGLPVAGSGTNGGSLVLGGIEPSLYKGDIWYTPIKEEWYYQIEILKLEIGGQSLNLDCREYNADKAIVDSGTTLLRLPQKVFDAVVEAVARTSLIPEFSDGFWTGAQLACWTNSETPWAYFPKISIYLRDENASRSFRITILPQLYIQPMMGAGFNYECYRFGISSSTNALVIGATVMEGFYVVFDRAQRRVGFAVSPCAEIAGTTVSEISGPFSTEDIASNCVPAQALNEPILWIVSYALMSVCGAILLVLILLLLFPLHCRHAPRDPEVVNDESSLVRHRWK
From the text: Assay for BACE Inhibition by Measuring Cellular TMEM27 Cleavage:
The assay uses the principle of inhibition of human TMEM27 cleavage by endogenous cellular BACE2 in the Ins1e rat cell line and shedding from the cell surface into the culture medium, followed by detection in an ELISA assay. Inhibition of BACE2 prevents the cleavage and shedding in a dose-dependent manner.
The stable cell line “INS-TMEM27” represents an INS1e-derived cell line with inducible expression (using the TetOn system) of full-length hTMEM27 in a doxycycline-dependent manner. The cells are cultured throughout the experiment in RPMI1640+ Glutamax (Invitrogen) Penicillin/Streptomycin, 10% Fetal bovine serum, […], […], 100 micrograms/ml G418 and 100 microgram/ml hygromycin and are grown inadherent culture at 37° C. in a standard CO2 cell culture incubator.
INS-TMEM27 cells are seeded in 96-well plates. After 2 days in culture, BACE2 inhibitor is added in a range of concentrations as required by the assay and after a further two hours, doxycycline is added to a final concentration of 500 ng/ml. The cells are incubated for a further 46 hours and the supernatant harvested for detection of shed TMEM27.
An ELISA assay (using a pair of mouse anti-human-TMEM27 antibodies, raised against the extracellular domain of TMEM27) is used for detection of TMEM27 in the culture medium. An EC50 for BACE2 inhibition is calculated using the ELISA readout for each inhibitor concentration with standard curve-fitting software such as XLFit for the Excel spreadsheet program.

Aβ40 = assay: Cellular Aβ-lowering assay; format: cell-based; settings: HEK293 cells stably expressing human APP695, Aβ40 in supernatant by ELISA after 18-20 hrs; read-out: Cellular assay Abeta40 IC50
Procedure: Cellular Aβ-Lowering Assay:
Human HEK293 cells which are stably transfected with a vector expressing a cDNA of the human APP wt gene (APP695) were used to assess the potency of the compounds in a cellular assay. The cells were seeded in 96-well microtiter plates in cell culture medium (Iscove, plus 10% (v/v) fetal bovine serum, glutamine, penicillin/streptomycin) to about 80% confluence and the compounds were added at a 10× concentration in 1/10 volume of medium without FCS containing 8% DMSO (final concentration of DMSO was kept at 0.8% v/v). After 18-20 hrs incubation at 37° C. and 5% CO2 in a humidified incubator the culture supernatant was harvested for the determination of Aβ40 concentrations. 96well ELISA plates (e.g., Nunc MaxiSorb) were coated with monoclonal antibody which specifically recognize the C-terminal end of Aβ40 (Brockhaus et al., NeuroReport 9, 1481-1486; 1998). After blocking of non-specific binding sites with e.g. 1% BSA and washing, the culture supernatants were added in suitable dilutions together with a horseradish peroxidase-coupled Aβ detection antibody (e.g., antibody 4G8, Senetek, Maryland Heights, Mo.) and incubated for 5 to 7 hrs. Subsequently the wells of the microtiter plate were washed extensively with Tris-buffered saline containing 0.05% Tween 20 and the assay was developed with tetramethylbenzidine/H2O2 in citric acid buffer. After stopping the reaction with one volume 1 N H2SO4 the reaction was measured in an ELISA reader at 450 nm wavelength. The concentrations of Aβ in the culture supernatants were calculated from a standard curve obtained with known amounts of pure Aβ peptide.

pIC50 [1]	pIC50 (Aβ40)	SMILES
7.61	8.00	Cc1ccc(C(=O)Nc2ccc(F)c([C@@]3(C)N=C(N)COCC3(F)F)c2)nc1 [Example 94, (R)-N-(3-(3-Amino-6,6-difluoro-5-methyl-2,5,6,7-tetrahydro-1,4-oxazepin-5-yl)-4-fluorophenyl)-5-methylpicolinamide formate]
8.52	8.59	C[C@]1(c2cc(NC(=O)c3ncc(Cl)cc3Cl)ccc2F)N=C(N)COCC1(F)F [Example 39, (R)-N-(3-(3-amino-6,6-difluoro-5-methyl-2,5,6,7-tetrahydro-1,4-oxazepin-5-yl)-4-fluorophenyl)-3,5-dichloropicolinamide formate]
7.29	8.15	C[C@]1(c2cc(NC(=O)c3ncc(C(F)(F)F)cc3Cl)ccc2F)N=C(N)COCC1(F)F [Example 25, 3-Chloro-5-trifluoromethyl-pyridine-2-carboxylic acid [3-((R)-3-amino-6,6-difluoro-5-methyl-2,5,6,7-tetrahydro-[1,4]oxazepin-5-yl)-4-fluoro-phenyl]-amide]
6.45	8.30	C[C@]1(c2cc(NC(=O)c3ncc(C(F)(F)F)cc3F)ccc2F)N=C(N)COCC1(F)F [Example 88, (R)-N-(3-(3-Amino-6,6-difluoro-5-methyl-2,5,6,7-tetrahydro-1,4-oxazepin-5-yl)-4-fluorophenyl)-3-fluoro-5-(trifluoromethyl)picolinamide formate]
7.37	8.68	C[C@]1(c2cc(NC(=O)c3ccc(C#N)cn3)ccc2F)N=C(N)COCC1(F)F [Example 30, (R)-N-(3-(3-amino-6,6-difluoro-5-methyl-2,5,6,7-tetrahydro-1,4-oxazepin-5-yl)-4-fluorophenyl)-5-cyanopicolinamide formate]
5.38	7.59	C[C@]1(c2cc(NC(=O)c3ccc(OCC(F)F)cn3)ccc2F)N=C(N)COCC1(F)F [Example 60, (R)-N-(3-(3-amino-6,6-difluoro-5-methyl-2,5,6,7-tetrahydro-1,4-oxazepin-5-yl)-4-fluorophenyl)-5-(2,2-difluoroethoxy)picolinamide formate]
4.52	7.47	CC1(C)OCC(N)=N[C@](C)(c2cc(NC(=O)c3ccc(C#N)cn3)c(F)cc2F)C1(F)F [Example 117, (R)-N-(5-(3-amino-6,6-difluoro-5,7,7-trimethyl-2,5,6,7-tetrahydro-1,4-oxazepin-5-yl)-2,4-difluorophenyl)-5-cyanopicolinamide]
	8.89	C[C@]1(c2cc(NC(=O)c3ccc(Cl)cn3)ccc2F)N=C(N)COCC1(F)F [Example 26, (R)-N-(3-(3-amino-6,6-difluoro-5-methyl-2,5,6,7-tetrahydro-1,4-oxazepin-5-yl)-4-fluorophenyl)-5-chloropicolinamide]

Second part, the molecule before the results:

SMILES	pIC50 [1]	pIC50 (Aβ40)
C[C@@]1(c2cc(NC(=O)c3ccc(F)cn3)ccc2F)CCOCC(N)=N1 [Example 9]	8.00	8.80
CC1(C)C[C@@](C)(c2cc(NC(=O)CC(F)(F)F)ccc2F)N=C(N)CO1 [Example 22, N-[3-((S)-3-Amino-5,7,7-trimethyl-2,5,6,7-tetrahydro-[1,4]oxazepin-5-yl)-4-fluoro-phenyl]-3,3,3-trifluoro-propionamide]	7.26	6.01
CC[C@]1(c2cc(NC(=O)c3n[nH]cc3C)ccc2F)N=C(N)COCC1(F)F [Example 92, (R)-N-(3-(3-Amino-5-ethyl-6,6-difluoro-2,5,6,7-tetrahydro-1,4-oxazepin-5-yl)-4-fluorophenyl)-4-methyl-1H-pyrazole-3-carboxamide]	6.14	5.55
C[C@]1(c2cc(NC(=O)c3ccn(C(F)F)n3)ccc2F)N=C(N)COCC1(F)F [Example 44, (R)-N-(3-(3-amino-6,6-difluoro-5-methyl-2,5,6,7-tetrahydro-1,4-oxazepin-5-yl)-4-fluorophenyl)-1-(difluoromethyl)-1H-pyrazole-3-carboxamide formate]	8.92	8.62
Cn1cc(Cl)c(C(=O)Nc2ccc(F)c([C@@]3(C)N=C(N)COCC3(F)F)c2)n1 [Example 41, (R)-N-(3-(3-amino-6,6-difluoro-5-methyl-2,5,6,7-tetrahydro-1,4-oxazepin-5-yl)-4-fluorophenyl)-4-chloro-1-methyl-1H-pyrazole-3-carboxamide formate]	8.52	8.14
CCc1n[nH]c(C(=O)Nc2ccc(F)c([C@@]3(CC)N=C(N)COCC3(F)F)c2)c1C [Example 93, (R)-N-(3-(3-Amino-5-ethyl-6,6-difluoro-2,5,6,7-tetrahydro-1,4-oxazepin-5-yl)-4-fluorophenyl)-3-ethyl-4-methyl-1H-pyrazole-5-carboxamide]	3.81	6.29
COC(C)C(=O)Nc1ccc(F)c([C@@]2(C)N=C(N)COCC2(F)F)c1 (stereo partly drawn) [Example 55, N-(3-((R)-3-amino-6,6-difluoro-5-methyl-2,5,6,7-tetrahydro-1,4-oxazepin-5-yl)-4-fluorophenyl)-2-methoxypropanamide formate]	6.72	6.85
C[C@]1(c2cc(NC(=O)c3ncc(Cl)cn3)ccc2F)N=C(N)COCC1(F)F [Example 46, 5-Chloro-pyrimidine-2-carboxylic acid [3-((R)-3-amino-6,6-difluoro-5-methyl-2,5,6,7-tetrahydro-[1,4]oxazepin-5-yl)-4-fluoro-phenyl]-amide]	8.19	8.77
NC1=N[C@@]2(c3cccc(NC(=O)c4ncc(C(F)(F)F)cc4Cl)c3)C[C@H]2COC1 (stereo in doubt) [Example 51, 3-Chloro-5-trifluoromethyl-pyridine-2-carboxylic acid [3-((R)-3-amino-5-oxa-2-aza-bicyclo[5.1.0]oct-2-en-1-yl)-phenyl]-amide; salt with trifluoroacetic acid]	5.07	7.00
C[C@]1(c2cc(NC(=O)c3nsc(Cl)n3)ccc2F)N=C(N)COCC1(F)F [Example 73, (R)-N-(3-(3-Amino-6,6-difluoro-5-methyl-2,5,6,7-tetrahydro-1,4-oxazepin-5-yl)-4-fluorophenyl)-5-chloro-1,2,4-thiadiazole-3-carboxamide formate]	5.19	6.52
CC[C@@]1(c2cc(NC(=O)c3ncc(Cl)cc3Cl)ccc2F)CCOCC(N)=N1 [Example 15, 3,5-Dichloro-pyridine-2-carboxylic acid [3-((S)-3-amino-5-ethyl-2,5,6,7-tetrahydro-[1,4]oxazepin-5-yl)-4-fluoro-phenyl]-amide]	7.42	6.06
C[C@@]1(c2cc(NC(=O)c3ccc(Cl)cn3)ccc2F)C[C@@H](c2ccccc2)OCC(N)=N1 [Example 69]		5.29
CC[C@]1(c2cc(NC(=O)c3nc[nH]c3C)ccc2F)N=C(N)COCC1(F)F [Example 100, (R)-N-(3-(3-Amino-5-ethyl-6,6-difluoro-2,5,6,7-tetrahydro-1,4-oxazepin-5-yl)-4-fluorophenyl)-5-methyl-1H-imidazole-4-carboxamide]	6.29	5.55
